22 compounds from US20260216144A1, “TARGETING MB2 OF THE MYC ONCOGENE AND ITS INTERACTION WITH TRRAP IN CANCER” (priority 2019, published 2026) can be followed below.

This test has as its target MYC:TRRAP interaction (Homo sapiens, UniProt P01106+Q9Y4A5). Description: MYC:TRRAP in-cell luminescence complementation assay (NanoBiT; SmB-MYC 1-190 and TRRAP 2033-2283-LgB in HeLa cells). The test is classed as cell-based. Here is the method: HeLa cells plated on Greiner 96-well TC-rated white plates with clear bottoms were used for the following measurements. Reverse transfections were carried out using LipoD293™ before cells were plated. A bluescript KS' plasmid (Addgene) was used as carrier DNA for transfections, and a pcDNA3.1 EGFP plasmid (ThermoFisher) was used as a fluorescence reporter. White light-reflecting film (USA Scientific) was used to cover the bottom of the plates for luminescence measurements. Black light-absorbing film was used to cover the top of the plates for fluorescence measurements. All measurements were taken on a SpectraMax i3 instrument (Molecular Devices).
Transfections were carried out with increasing DNA amounts (1-100 ng per well) of a CMV-driven LgB plasmid and SmB in excess or vice-versa. Background luminesce for the usable range and the amount of DNA needed for vast excess of LgB or SmB were noted. Next, complementation with vast excess either LgB or SmB was used to determine the expression of each of the indicated MYC and TRRAP constructs for a range of DNA amounts per well: 10-100 ng. An optimal ratio of DNA to equalize the expression of each MYC and TRRAP pair was calculated. Then, signal-to-noise ratios were calculated for the indicated MYC and TRRAP pairs, and the pair with the highest ratio was chosen. Finally, the chosen pair was used to determine the optimal DNA transfection mixture. It was determined to be 6.7 ng of a plasmid with a MYC construct, 60 ng of a plasmid with a TRRAP construct and 33.3 ng of the pcDNA 3.1 EGFP plasmid, for each well in a 96-well plate. Unless otherwise indicated, these were the ratios of DNA transfected for this type of assay.
HeLa cells were transfected as above using LipoD293™ with a mixture of SmB-MYC 1-190, TRRAP 2033-2283-LgB, and EGFP in CMV-driven plasmids at the same optimized ratio described above. Two days post-transfection, the media in each well was replaced with fresh media containing each compound from the NCI's sets at 25 μM. Cells were incubated for 2 h with each compound, and luminescence and fluorescence measurements were recorded for each well. Changes in luminescence were normalized to fluorescence. The following pre-plated compound sets were obtained from the NCI/DTP chemical repository and used for this screen:
These chemical sets were used to discover novel small-molecule inhibitors of the MYC:TRRAP complex. SmB-MYC 1-190, TRRAP 2033-2283-LgB, and EGFP were transfected into HeLa cells. Two days post-transfection, compounds were added to the media at 25 μM and cells were incubated for 2h. Luminescence and fluorescence were recorded for each well containing one of the compounds. Changes in luminescence measurements were normalized to fluorescence measurements.
Afterwards, only molecules that reduced luminescence levels to <50% RLU were considered. This set of 46 compounds were incubated at 10 μM with vector-expressing cells. Luminescence complementation was measured and repeated in triplicate measurements. In addition, HeLa cells expressing LgB and SmB alone were incubated with the same compounds to rule out potentially artificial results due to inhibition of luciferase or its complementation. Molecules that induces any significant reduction in luminescence (<0.6) during this control assay were not considered further. Of 2947 molecules, 17 were chosen for further testing and ordered from the NCI/DTP Open Chemical Repository. FIG. 16 describes these chosen compounds.
Using the luminescence assay above as a readout for the MYC:TRRAP interaction, we used a robotic liquid handler to evaluate 2987 additional compounds (25 μM). All primary hits were counter-screened for any activity against the luciferase enzyme itself and for any effects on the expression of the fusion proteins. We set a threshold of 50% inhibition to consider compounds further. Only 17 out of 2987 passed all these criteria (0.6%). […]

Setting [1] is: Table 2, compounds with >80% similarity to compound 10 (NSC657456), 10 uM.
The mark [2] stands for this setting: Table 1, 46 primary hits at 10 uM, HeLa cells, triplicate measurements.

Sequence of MYC:TRRAP interaction (P01106 16-205): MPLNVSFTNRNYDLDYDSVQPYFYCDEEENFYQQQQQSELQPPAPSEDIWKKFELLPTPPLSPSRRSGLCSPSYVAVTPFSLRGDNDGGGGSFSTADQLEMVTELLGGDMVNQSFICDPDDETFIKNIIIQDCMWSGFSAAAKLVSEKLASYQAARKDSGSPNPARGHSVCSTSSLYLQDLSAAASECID
Sequence of MYC:TRRAP interaction (Q9Y4A5 2051-2301): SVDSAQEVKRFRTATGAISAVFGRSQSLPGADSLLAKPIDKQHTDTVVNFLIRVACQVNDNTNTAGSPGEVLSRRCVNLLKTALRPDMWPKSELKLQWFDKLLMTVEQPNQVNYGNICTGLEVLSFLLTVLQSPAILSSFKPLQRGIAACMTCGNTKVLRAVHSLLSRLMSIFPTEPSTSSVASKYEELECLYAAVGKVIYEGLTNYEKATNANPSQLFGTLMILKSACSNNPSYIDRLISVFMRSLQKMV

As to `O=C(Cc1ccccc1)/N=N/c1c(O)[nH]c2ccccc12` [Compound 1038, N-((2-hydroxy-1H-indol-3-yl)imino]-2-phenylacetamide], the “% Inhibition 10 uM” value under setting [1] was determined as 86.67%. Consider `COC(=O)[C@H]1[C@H]2C[C@@H]3c4[nH]c5ccccc5c4CCN3C[C@H]2C[C@@H](OC(=O)c2cc(OC)c(OC)c(OC)c2)[C@@H]1OC` [Compound 42, methyl (1R,15S,17R,18R, 19S,20S)-18-methoxy-17-(3,4,5-trimethoxybenzoyl) oxy-1,3,11,12,14,15,16, 17,18,19,20,21-dodecahydro-yohimban-19-carboxylate], for which the “% Inhibition 10 uM” value under setting [2] came out at 102.5%. As for `Nc1ccc(/N=N/c2ccccc2)c2ccccc12` [Compound 3, 4-phenyldiazenylnaph-thalen-1-amine], under setting [2], the “% Inhibition 10 uM” value is 22.41%. In the case of `CC(C)(C)c1cc(C=C(C#N)C#N)cc(C(C)(C)C)c1O` [Compound 25, 2-[(3,5-ditert-butyl-4-hydroxyphenyl)methylidene] propanedinitrile], under setting [2], the “% Inhibition 10 uM” value was found to be 42.52%. On to `Oc1[nH]c2ccccc2c1/N=N/c1ccccc1` [Compound 1012, 3-phenyldiazenyl-1H-indol-2-ol], for which the “% Inhibition 10 uM” value under setting [1] was found to be 66.53%. For `CCCNC(=S)N=Nc1c(O)[nH]c2ccccc12` [Compound 1032, 1-[(2-hydroxy-1H-indol-3-yl)imino]-3-propylthiourea], the “% Inhibition 10 uM” value under setting [1] is on record as 88.62%. On the same count and under the same terms, for `Oc1[nH]c2ccccc2c1/N=N/c1ccccc1Cl` [Compound 1011, 3-[(2-chlorophenyl)diazenyl]-1H-indol-2-ol] the value was 64.75%; for `Oc1[nH]c2ccccc2c1/N=N/c1nc(-c2ccc(Cl)c(Cl)c2)cs1` [Compound 1025, 3-[[4-(3,4-dichlorophenyl)-1,3-thiazol-2-yl]diazenyl]-1H-indol-2-ol], 53.24%; for `Nn1c(S)nnc1/N=N/c1c(O)[nH]c2ccccc12` [Compound 1021, 4-amino-3-[(2-hydroxy-1H-indol-3-yl)diazenyl]-1H-1,2,4-triazole-5-thione], 71.88%. For the compound `CC1Oc2cc3c(-c4c(O)cc(O)c5c(O)c6c(cc45)OC(C)C(C)C6=O)c(O)cc(O)c3c(O)c2C(=O)C1C` (stereo not shown) [Compound 38], the “% Inhibition 10 uM” value under setting [2] is listed as 76.03%. Regarding `CCN(CC)Cc1cc(/N=N/c2c(O)ccc3c(/N=N/c4ccc(O)c(CN(CC)CC)c4)c(O)ccc23)ccc1O.Cl` [Compound 15, 1,5-bis[[3-(diethyl-aminomethyl)-4-hydroxyphenyl]diazenyl] naphthalene-2,6-diol; hydrochloride], the “% Inhibition 10 uM” value under setting [2] is listed as 57.02%. The same measure, in the same setting: for `CC1=C(CCC(=O)O)c2cc3nc(cc4[nH]c(cc4C)cc4[nH]c(cc1n2)cc4C)C(C)=C3CCC(=O)O` [Compound 27, 3-[18-(2-carboxyethyl)-3,8,13,17-tetramethyl-22,23-dihydroporphyrin-2-yl]propanoic acid] the value was 75.42%. Turning to `Cc1sc(/N=N/c2c(O)[nH]c3ccccc23)nc1-c1ccccc1` [Compound 1027, 3-[(5-methyl-4-phenyl-1,3-thiazol-2-yl)diazenyl]-1H-indol-2-ol], the “% Inhibition 10 uM” value under setting [1] was 50.66%. Turning to `CC1=C(C)C(=O)O[C@H]([C@](C)(O)[C@]2(O)CC[C@@]3(O)[C@@H]4C[C@H]5O[C@]56CC=CC(=O)[C@]6(C)[C@H]4CC[C@]23C)C1` [Compound 33, (1S,2R,7S,9R,11R, 12R,15S,16S)-15-[(1S)-1-[(2S)-4,5-dimethyl-6-oxo-2,3-dihydropyran-2-yl]-1-hydroxyethyl]-12,15-dihydroxy-2,16-dimethyl-8-oxapentacyclo [9.7.0.02, 7.07,9.012,16] octadec-4-en-3-one], the “% Inhibition 10 uM” value under setting [2] is on record as 29.74%.

Turning to `Cc1cc(O)c(C(C)C)cc1C1(c2cc(C(C)C)c(O)cc2C)OC(=O)c2ccccc21` [Compound 2, 3,3-bis(4-hydroxy-2-methyl-5-propan-2-ylphenyl)-2-benzofuran-1-one], under setting [2], the “% Inhibition 10 uM” value came to 11.16%.

For `Cc1ccc(NC(=O)c2cc3ccccc3c(/N=N/c3ccccc3O)c2O)c(C)c1` [Compound 5, N-(2,4-dimethylphenyl)-3-hydroxy-4-[(2-hydroxyphenyl)diazenyl] naphthalene-2-carboxamide], the “% Inhibition 10 uM” value under setting [2] turned out to be 37.24%. On the same count and under the same terms, for `COc1ccc(OC)c(-c2cc(=O)c3c(OC)c(OC)c(OC)c(OC)c3o2)c1` [Compound 6, 2-(2,5-dimethoxyphenyl)-5,6,7,8-tetramethoxy-chromen-4-one] the value was 33.66%.

Take `COC(=O)c1cc(-c2c[nH]cc2C(=O)OCc2ccccc2)cn1S(=O)(=O)c1ccc(C)cc1` [Compound 8, methyl 1-(4-methylphenyl) sulfonyl-4-(4-phenylmethoxycar-bonyl-1H-pyrrol-3-yl)pyrrole-2-carboxylate]: the “% Inhibition 10 uM” value under setting [2] turned out to be 33.32%.

As to `CCOC(=O)/N=N/c1c(O)[nH]c2ccccc12` [Compound 1014, ethyl N-[(2-hydroxy-1H-indol-3-yl)imino] carbamate], the “% Inhibition 10 uM” value under setting [1] amounted to 107.3%.

`O=C(Cc1csc(/N=N/c2c(O)[nH]c3ccccc23)n1)Nc1ccccc1` [Compound 1028, 2-[2-[(2-hydroxy-1H-indol-3-yl)diazenyl]-1,3-thiazol-4-y]-N-phenylacetamide]: the “% Inhibition 10 uM” value under setting [1] is given as 97.46%. Regarding `Cc1ccc2c(c1)C(=C(C#N)C#N)CCN2` [Compound 18, 2-(6-methyl-2,3-dihydro-1H-quinolin-4-ylidene)propanedi-nitrile], the “% Inhibition 10 uM” value under setting [2] came out at 57.21%. The same measure, in the same setting: the same measure for `C/N=c1\sc2c(n1C)C(=O)c1ccccc1C2=O` [Compound 13, 3-methyl-2-methyliminobenzo [f][1,3] benzothiazole-4,9-dione]: 68.66%.
